Experimental data from US5985824A, “Methods and compositions for treating cystic fibrosis” (priority 1997, dated 1999).
Entries after “also recorded” stand apart in the source; their conditions may differ.

Assays:
[1] = tested on: ΔF508-CFTR (IBE-1 cells); test: whole cell patch-clamp analysis of IBE-1 cells; assay type: cell-based, human; details: 200 μM extracellular DPC, n=4, DSG-treated IBE-1 cells
Experimental: The bath (extracellular) solution contained: 140 mM N-methyl-Dglucamine (NMDG), 2 mM CaCl2, 1 mM MgCl2, 0.1 mM CdCl2, 10 mM HEPES, 4 mM CsCl, and 10 mM glucose, pH 7.4. These solutions were designed so as to study only currents flowing through Cl^- channels, since Cl^- was the only significant permeant ion in the solutions. Furthermore, Ca^2+ -activated Cl^- currents were minimized by inclusion of 10 mM EGTA in the intracellular solution and 100 μM of Cd^2+ in the extracellular bath. K^+ currents were minimized by including 20 mM TEA in the intracellular solution. Aspartate was used as the replacement anion in experiments in which extracellular Cl^- concentration was changed. Forskolin (10 μM), IBMX (100 μM), 8-(4-chlorophenylthio)-cAMP (cpt-cAMP, 200 μM), diphenylamine carboxylic acid (DPC, 200 μM), UTP (100 μM), and ionomycin (1 μM) were added to the bath solutions as indicated. Current recordings were made from the same cells before, during, and after exposure to the solutions containing the different agonists or inhibitors. All experiments were performed at room temperature (22° C.). Currents were filtered at 2 kHz. Data acquisition and analysis were performed using the PCLAMP 5.5.1 software (Axon Instruments, Foster City, Calif.).
In all of the successfully patched CF IBE-1 cells from 6 separate coverslips no activation of whole cell currents in response to forskolin (10 μM) plus IBMX (100 μM) or cpt-cAMP (200 μM) was detected (FIG. 10A and 10B), indicating no endogenous CFTR channel activity in these cells. In contrast, in 7 out of 19 successful patched cells from 19 separate coverslips treated with DSG (10 μM) for 48 to 72 hrs. a significant activation of whole cell currents was observed. As all the other cells, the holding potential was 0 m, which inactivated the voltage-gated Na^+ and Ca^++ channels. After addition of 200 μM cpt-cAMP to the bath solution, voltage steps from the holding potential to between -100 mV and 80 mV in 20 mV increments activated whole cell currents. In these experiments, the intracellular and extracellular solutions were designed to study only current flowing through Cl^- channels, since Cl^- is the only significant permeant ion in solution. Ca^++ and K^+ currents were minimized by 100 μM of extracellular Cd^++ and 20 mM of intracellular TEA respectively. Furthermore, the currents were ascertained to be Cl^- currents from change in the reversal potential which was shifted from 1.1±1.5 to 47.3±6.1 mV by reducing extracellular Cl^- from 150 mM to 20 mM.
It is highly unlikely that Ca^++ -activated Cl^- was recorded in these experiments because of the presence of 10 mM intracellular EGTA and 100 µM extracellular Cd^++. […] Special attention was paid to detect possible contribution of the outwardly rectifying Cl^- channel (ORCC) to the whole cell currents. Because of a possible upregulatory role of CFTR, ORCC can be activated in normal but not in CF airway epithelial cells (Hwang et al. (1989), supra.; Li et al. (1988), Nature 331: 358-360; Morris and Frizzel (1993); Am. J. Physiol.; Schwiebert et al. (1994), Am. J. Physiol.).

[2] = tested on: ΔF508-CFTR (IBE-1 cells); details: CFTR vs ORCC; Cliff and Frizzel, Schwiebert et al.; cited from earlier work
[3] = tested on: CFTR; details: Yang et al. (1997); cited from earlier work
[4] = tested on: ΔF508-CFTR (C127-ΔF508-low cells); test: SPQ halide efflux assay, cAMP-stimulated Cl- channel activity, C127-ΔF508-low cells; assay type: cell-based; details: C127-ΔF508-low cells; for cAMP-stimulated change in SPQ fluorescence / Cl- channel activity, in words: DSG 10-100 μg/ml, sodium butyrate 5 mM 24 h, spermidine 5 μg/ml 72 h
Experimental: (§1) The cAMP-dependent CFTR Cl^- channel activity was assessed using the halide-sensitive fluorophore 6-methoxy-N-(3-sulfopropyl)-quinolinium (SPQ) essentially as described previously (Cheng et al., (1995), supra.; Marshall et al., supra.). Briefly, the cells were treated with different amounts of DSG for the times specified. At the end of the treatment period, the cells were loaded with SPQ by hypotonic shock for 4 min at room temperature. SPQ fluorescence initially was quenched by incubating the cells for up to 30 min in a NaI buffer (135 mM NaI, 2.4 mM K2 HPO4, 0.6 mM KH2 PO4, 1 mM MgSO4, 1 mM CaSO4, 10 mM dextrose, and 10 mM N-2 hydroxyethylpiperazine-N'2-ethanesulfonic acid, pH 7.4). After measuring the baseline fluorescence (Fo) for 2 min., the NaI solution was replaced with one containing 135 mM NaNO3, and fluorescence was measured for another 16 min. Forskolin (20 μM) and 3-isobutyl-1-methyl-xanthine (IBMX) (100 μM) were added 5 min after the anion substitution to increase intracellular levels of cAMP.
(§2) An increase in halide permeability is reflected by a more rapid increase in SPQ fluorescence. It is the rate of change rather than the absolute change in signal that is the important variable in evaluating anion permeability. Differences in absolute levels reflect quantitative differences between groups in SPQ loading, size of cells, or number of cells studied. The data are presented as means± SE of fluorescence at time t (Ft) minus the baseline fluorescence (Fo, the average fluorescence measured in the presence of I^- for 2 min. before ion substitution) and are representative of results obtained under each condition.
For each experiment, between 50 to 100 cells were examined on a given day and studies under each condition were repeated on at least two days. For each experiment, the responses were compared with those obtained with control or untreated cells. […] Under the conditions specified above, control cells were unresponsive to added cAMP agonists. There was a broad spectrum in the rate of change in SPQ fluorescence observed with responsive cells. Normally, cells were scored as responsive if they generated a minimum of a […] change in the rate of increase in SPQ fluorescence following stimulation with cAMP agonists. Because the response was heterogenous, the data shown are for the 10% of cells in each experiment showing the greatest response.
A bovine-papilloma virus based eukaryotic expression vector (pBPV-CFTR-ΔF508) containing the gene for ΔF508 CFTR and neomycin resistance were transfected into C127 cells. The C127 cells are murine mammary cells which were obtained from ATCC (#CRL 1616). The expression of the mutant ΔF508 protein and neomycin was driven using a metallothionein promoter. Following transfection, clonal cells resistant to G418 were isolated and cells expressing the mutant ΔF508 protein were subsequently identified using antibodies specific for CFTR (mAb-13-1). The cells expressing the mutant ΔF508 CFTR protein were maintained in Dulbecco's modified eagle media (DMEM) supplemented with glutamine and fetal calf serum.
C127-ΔF508-low (mouse mammary tumor) is a recombinant cell line stably transfected with the cDNA encoding the mutant ΔF508-CFTR (Cheng et al. (1995), supra.; Marshall et al. (1994), J. Biol. Chem. 269: 2987-2995). […] C127-mock is a cell line that has been stably transfected with the backbone of the expression vector used to generate C127-ΔF508-low (Cheng et al. (1995), supra.). LLCPK1 -ΔF508 (pig kidney epithelial) is a recombinant cell line stably expressing low levels of the mutant ΔF508-CFTR protein (Marshall et al., supra.). The details of the generation, characterization and routine propagation of these cell lines has been described (Cheng et al. (1995), supra.; Marshall et al., supra.).
Cells were treated with up to 100 μg/ml of DSG for up to 72 h. Concentrations of DSG >50 μg/ml were toxic to most of the cell types tested. […]

[5] = tested on: ΔF508-CFTR; details: recombinant cells; Cheng et al. (1995); cited from earlier work
[6] = tested on: ΔF508-CFTR (JME/CF15 cells); test: SPQ assay, cAMP-stimulated Cl- channel activity, JME/CF15 cells; assay type: cell-based, human; details: 72 h
Experimental: as §1, §2
For each experiment, between 50 to 100 cells were examined on a given day and studies under each condition were repeated on at least two days. […] There was a broad spectrum in the rate of change in SPQ fluorescence observed with responsive cells. Normally, cells were scored as responsive if they generated a minimum of a […] change in the rate of increase in SPQ fluorescence following stimulation with cAMP agonists. […]

Compound: O=C(O)c1ccccc1Nc1ccccc1 [DPC, diphenylamine carboxylic acid]
- reduction of whole cell currents [1]: 92±4%
- selectivity of inhibition [2]: specifically inhibit CFTR but not ORCC

Compound: O=c1c(-c2ccc(O)cc2)coc2cc(O)cc(O)c12 [genistein]
- activity of CFTR Cl channels at the cell surface [3]: enhance the activity of CFTR

Compound: CCCC(=O)[O-].[Na+] [sodium butyrate]
- cells generating a measurable response ([4]; SPQ, average of 5 experiments): 90%
- cAMP-stimulated change in SPQ fluorescence / Cl- channel activity, in words [4]: generated cAMP-stimulated halide efflux
- effect on ΔF508-CFTR expression / location, in words [5]: overexpression of ΔF508 in recombinant cells; also recorded: results in synthesis of detectable amounts of band C-CFTR; also recorded: capable of effecting the presence of ΔF508-CFTR at the plasma membrane

Compound: NCCCCNCCCN [spermidine]
- cAMP-stimulated change in SPQ fluorescence / Cl- channel activity, in words [4]: No measurable cAMP-stimulated Cl^- channel activity was detected
- cAMP-stimulated Cl- channel activity, in words [6]: not replicated

Compound: calyculin
- activity of CFTR Cl channels at the cell surface [3]: enhance the activity of CFTR
